Measurements from patent publication US12605451B2, “Targeted plasma protein degradation” (Novartis AG, priority 2020, dated 2026).

How the values were obtained:
FHR3 = biological target: T1, FHR3 (Homo sapiens, UniProt Q02985); experiment: SPR binding to biotinylated FHR3 (Proteon XPR36); conditions: Bifunctional Compound
T1 construct: Purified FHR3 with C-terminal biotinylated Avitag was used for the assay
T1 sequence (Q02985 19-330): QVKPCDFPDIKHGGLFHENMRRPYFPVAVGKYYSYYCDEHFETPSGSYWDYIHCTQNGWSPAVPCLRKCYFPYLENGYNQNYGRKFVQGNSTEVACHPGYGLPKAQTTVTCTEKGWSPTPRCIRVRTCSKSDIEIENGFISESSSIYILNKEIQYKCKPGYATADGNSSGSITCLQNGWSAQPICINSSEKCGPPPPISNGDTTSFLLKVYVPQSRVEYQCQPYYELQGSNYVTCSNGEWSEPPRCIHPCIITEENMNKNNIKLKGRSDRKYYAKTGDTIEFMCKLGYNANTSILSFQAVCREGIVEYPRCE
Experimental: SPR was used to obtain the binding data for FHR3 receptor ligands compounds (C12), (C13), (C14), (C15) and (C16), either alone or as part of the bifunctional compounds (BFC13), (BFC14), (BFC15), (BFC16) and (BFC17), respectively.
SPR Binding experiments were performed on a Proteon XPR36 instrument (Bio-Rad Laboratories). Purified FHR3 with C-terminal biotinylated Avitag was used for the assay. Biotinylated FHR3 was incubated with fivefold molar excess of bifunctional compounds (BFC13), (BFC14), (BFC15), (BFC16) or (BFC17), or compounds (C12), (C13), (C14), (C15) or (C16), and immobilized onto a Neutravidin coated sensor chip. (NLC chip, Bio-Rad Laboratories, Inc). […]
To perform sandwich SPR binding assays, His-ASGPR1 (62-291) protein stocks were diluted with running buffer to a desired concentration. […] Sensorgrams were recorded for association and dissociation phases. All sensorgrams were processed by subtracting the binding response recorded from a blank control surfaces (or interspot surfaces), followed by subtracting buffer blank injections from the reaction surface. […]

human ASGPR1 = biological target: T2, human ASGPR1 (Homo sapiens, UniProt P07306); experiment: ASGPR1 SPR direct binding (Biacore, SA chip); conditions: Bifunctional Compound (FHR3 series), Table 7, read-out: ASGRR KD
T2 construct: Recombinant extracellular domain of human ASGPR1 with N-terminal biotinylated Avitag
T2 sequence (P07306 62-291 limits assumed): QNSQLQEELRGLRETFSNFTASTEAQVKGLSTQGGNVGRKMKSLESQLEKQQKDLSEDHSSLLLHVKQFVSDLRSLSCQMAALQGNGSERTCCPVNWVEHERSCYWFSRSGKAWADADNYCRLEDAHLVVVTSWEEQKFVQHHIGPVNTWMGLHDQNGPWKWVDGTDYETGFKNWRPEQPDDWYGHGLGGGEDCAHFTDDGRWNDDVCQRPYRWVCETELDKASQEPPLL
Experimental: SPR was used to obtain the binding data for ASGP receptor ligand compound (int-CC2), either alone or as part of the bifunctional compounds (BFC-13), (BFC-15) and (BFC16).
(§1) ASGPR1 SPR experiments were performed on either Biacore T200 or Biacore 8K. The assay was optimized for Biacore (Streptavidin) SA chip in running buffer consisting of 20 mM HEPES, 300 mM NaCl, 2 mM CaCl2, 0.01% tween-20, 2% DMSO, pH 7.4. Recombinant extracellular domain of human ASGPR1 with N-terminal biotinylated Avitag was diluted to 20 μg/mL in running buffer, and immobilized onto SA chip after it was preconditioned with at least four 60-second injections at 30 uL/min of 1 M NaCl/40 mM NaOH solution. Protein immobilization level varied from 500 RU to 3500 RU dependent on analytes' molecular weight, for targeted Rmax of 30 RUs. Direct binding of analytes to ASGPR1 was observed when a dose response titration of analytes in 2% DMSO was flown over the immobilized protein. Data analysis was done on either Biacore T200 Evaluation Software or Biacore Insight Evaluation Software.
SPR was used to obtain the binding data for ASGP receptor ligand compounds (int-CC2), either alone or as part of the bifunctional compounds (BFC1).
as §1, with “Biacore” for “Biacore (Streptavidin)”

Kd (FHR3) [nM]	Kd (human ASGPR1) [nM]	SMILES
301	0.45	CC(=O)N[C@H]1[C@H](OCCCCC(=O)NCCCNC(=O)CCOCC(COCCC(=O)NCCCNC(=O)CCCCO[C@@H]2O[C@H](CO)[C@H](O)[C@H](O)[C@H]2NC(C)=O)(COCCC(=O)NCCCNC(=O)CCCCO[C@@H]2O[C@H](CO)[C@H](O)[C@H](O)[C@H]2NC(C)=O)NC(=O)CCOCCOCCOCCOCCOCCOCCOCCOCCOCCC(=O)NCCCC[C@@H]2NC(=O)[C@H](Cc3ccc(O)cc3)NC(=O)[C@H](CC(N)=O)NC(=O)[C@H](C(C)C)NC(=O)[C@H](CO)NC(=O)[C@H](Cc3ccccc3)N(C)C(=O)[C@H](CCCNC(=N)N)NC(=O)[C@H](Cc3ccccc3)NC(=O)CSC[C@@H](C(=O)NCC(N)=O)NC(=O)[C@H](Cc3ccccc3)N(C)C(=O)[C@H](CC(N)=O)NC(=O)[C@@H]3Cc4ccccc4CN3C(=O)[C@H](CC(=O)O)NC(=O)[C@H](CCCNC(=N)N)NC2=O)O[C@H](CO)[C@H](O)[C@@H]1O [BFC-15]
26	0.32	CC(=O)N[C@H]1[C@H](OCCCCC(=O)NCCCNC(=O)CCOCC(COCCC(=O)NCCCNC(=O)CCCCO[C@@H]2O[C@H](CO)[C@H](O)[C@H](O)[C@H]2NC(C)=O)(COCCC(=O)NCCCNC(=O)CCCCO[C@@H]2O[C@H](CO)[C@H](O)[C@H](O)[C@H]2NC(C)=O)NC(=O)CCOCCOCCOCCOCCOCCOCCOCCOCCOCCC(=O)NCCCC[C@@H]2NC(=O)[C@H](CCCNC(=N)N)NC(=O)[C@H](C)N(C)C(=O)[C@H](Cc3c[nH]c4ccccc34)NC(=O)[C@H](Cc3c[nH]cn3)NC(=O)[C@H](CC(C)C)NC(=O)[C@H](CO)NC(=O)[C@H](C)N(C)C(=O)[C@H](Cc3ccccc3)N(C)C(=O)[C@H](Cc3ccccc3)NC(=O)CSC[C@@H](C(=O)NCC(N)=O)NC(=O)[C@H](CCCNC(=N)N)NC(=O)[C@H](CC(=O)O)NC2=O)O[C@H](CO)[C@H](O)[C@@H]1O [BFC-16]
